This passage reports IC50 and inhibition results from patent US9018214B2, “Bicyclic heterocycle compounds and their uses in therapy” (Astex Therapeutics Limited, priority 2011, dated 2015).

Experiment [1] deals with BIR3 domain of human cIAP-1 (residues 267-363) (Homo sapiens (Human), UniProt Q13490). The experiment is described as follows: cIAP-1 in vitro competitive displacement binding assay (fluorescence polarization; Probe A AVPIK(5&6FAM)-amide or Probe B AbuRPFK(5&6FAM)-amide).
Experiment [2] addresses BIR3 domain of human XIAP (residues 252-350) (Homo sapiens (Human), UniProt P98170). The experiment can be described thus: XIAP in vitro competitive displacement binding assay (fluorescence polarization). The following applies: for IC50: read-out: IC50 or PI Xiap: IC50.
The mark [3] stands for this setting: read-out: IC50 or PI cIAP1: IC50.
Setting [4] is: Probe B AbuRPFK(5&6FAM)-amide, read-out: IC50 or PI cIAP1: IC50.
Where [5] appears, read: 3 h, Probe A, read-out: IC50 or PI cIAP1: PI.
Where [6] appears, read: 1 h, read-out: IC50 or PI Xiap: PI.
Setting [7] is: Probe A AVPIK(5&6FAM)-amide, read-out: IC50 or PI cIAP1: IC50.

Structures can show the parent of a compound that is named as a salt. Where two headings read alike, the source gives them in different places. Bounds are passed on as bounds.

Consider `C[C@@H]1CN(CC(=O)N2CC(C)(C)c3cc(F)c(S(=O)(=O)C4CC4)cc32)CCN1` [Example 57, 1-(6-Cyclopropane-sulfonyl-5-fluoro-3,3-dimethyl-2,3-dihydro-indol-1-yl)-2-((R)-3-methyl-piperazin-1-yl)-ethanone dihydrochloride salt], for which the half-inhibitory concentration (IC50) in experiment [1] (setting [3]) came out at 2 µM; in experiment [2], 0.81 µM.

Consider `C[C@@H]1CN(CC(=O)N2CC(C)(C)c3ccc(C#N)cc32)CCN1` [Example 162, 3,3-Dimethyl-1-{2-[(3R)-3-methylpiperazin-1-yl]acetyl}-2,3-dihydro-1H-indole-6-carbonitrile], for which the results for the IC50 in experiment [1] (setting [4]) and in experiment [2] were 7.9 µM and 5.5 µM, respectively.

Consider `CC(=O)N1CCC2(CC1)CN(C(=O)CN1CCN[C@H](C)C1)c1cc(Cl)ccc12` [Example 31, 1-{1′-Acetyl-6-chloro-1,2-dihydrospiro[indole-3,4′-piperidine]-1-yl}-2-[(3R)-3-methylpiperazin-1-yl]ethan-1-one hydrochloride salt], for which the inhibition at 49 µM in experiment [1] (setting [5]) is 62%; in experiment [2] (setting [6]), 51%.

Turning to `C[C@@H]1CN(CC(=O)N2CCc3ccccc32)CCN1` [Example 85, 1-(2,3-Dihydro-1H-indol-1-yl)-2-[(3R)-3-methylpiperazin-1-yl]ethan-1-one, hydrochloride salt], the inhibition at 250 µM in experiment [1] (3 h, Probe A, @ 250 μM, read-out: IC50 or PI cIAP1: PI) stood at 45%. Further, the inhibition at 500 µM in experiment [2] (1 h, @ 500 μM, read-out: IC50 or PI Xiap: PI) was 52%.

With `COC[C@H]1CN[C@H](C)CN1CC(=O)N1CC(C)(C)c2cnc(Nc3ccccc3)cc21` [Example 81, 1-(3,3-Dimethyl-6-phenylamino-2,3-dihydro-pyrrolo[3,2-c]pyridin-1-yl)-2-((2R,5R)-2-methoxymethyl-5-methyl-piperazin-1-yl)-ethanone hydrochloride salt], the inhibition at 100 µM in experiment [1] (3 h, Probe B, @ 100 μM, read-out: IC50 or PI cIAP1: PI) was 36%. In addition, in experiment [2] (1 h, @ 300 μM, read-out: IC50 or PI Xiap: PI), the inhibition at 300 µM was determined as 51%.

For the molecule `C[C@@H]1CN(CC(=O)N2CCc3ccc(N)cc32)CCN1` [Example 7, 1-(6-Amino-2,3-dihydro-indol-1-yl)-2-((R)-3-methyl-piperazin-1-yl)-ethanone], the inhibition at 5000 µM in experiment [1] (3 h, Probe A, @ 5000 μM, read-out: IC50 or PI cIAP1: PI) is -30%. The inhibition at 1600 µM in experiment [2] (1 h, @ 1600 μM, read-out: IC50 or PI Xiap: PI) was determined as 43%.

As to `CNS(=O)(=O)c1cc2c(cc1Br)CCN2C(=O)CN1CCN[C@H](C)C1` [Example 25, 5-Bromo-1-[2-((R)-3-methyl-piperazin-1-yl)-acetyl]-2,3-dihydro-1H-indole-6-sulfonic acid methylamide hydrochloride salt], the 50% inhibitory concentration (IC50) in experiment [1] (setting [7]) was 60 µM; in experiment [1] (setting [4]) it was 61 µM; in experiment [2], 1.6 µM.

In the case of `COC[C@H]1CN[C@H](C)CN1CC(=O)N1CC(C)(C)c2ccc(C#N)cc21` [Example 117, 1-{2-[(2R,5R)-2-(Methoxymethyl)-5-methylpiperazin-1-yl]acetyl}-3,3-dimethyl-2,3-dihydro-1H-indole-6-carbonitrile hydrochloride], the values for the IC50 in experiment [1] (setting [4]) and in experiment [2] were 0.71 µM and 0.79 µM, respectively.

Consider `C[C@@H]1CN(CC(=O)N2CC(C)(C)c3c(Cl)cccc32)CCN1` [Example 19, 1-(4-Chloro-3,3-dimethyl-2,3-dihydro-indol-1-yl)-2-((R)-3-methyl-piperazin-1-yl)-ethanone], for which the figures for the IC50 in experiment [1] (setting [7]) and in experiment [2] were 17 µM and 150 µM, respectively.

For the molecule `COC[C@H]1CN[C@H](C)CN1CC(=O)N1CC(C)(C)c2cnc(C(C)(F)F)cc21` [Example 181, 1-[6-(1,1-Difluoroethyl)-3,3-dimethyl-1H,2H,3H-pyrrolo[3,2-c]pyridin-1-yl]-2-[(2R,5R)-2-(methoxymethyl)-5-methylpiperazin-1-yl]ethan-1-one dihydrochloride], the half-inhibitory concentration (IC50) in experiment [1] is less than 1 µM; in experiment [1] (setting [3]), 0.25 µM; in experiment [2], 0.33 µM.

In the case of `C[C@@H]1CN(CC(=O)N2CCc3cc(F)ccc32)CCN1` [Example 9, 1-(5-Fluoro-2,3-dihydro-indol-1-yl)-2-((R)-3-methyl-piperazin-1-yl)-ethanone], the IC50 in experiment [1] (setting [7]) was 170 µM; in experiment [2], 130 µM.

On to `COC[C@H]1CN[C@H](C)CN1CC(=O)N1CC(C)(C)c2cc(OC)ncc21` [Example 65, 1-(5-Methoxy-3,3-dimethyl-2,3-dihydro-pyrrolo[2,3-c]pyridin-1-yl)-2-((2R,5R)-2-methoxymethyl-5-methyl-piperazin-1-yl)-ethanone hydrochloride salt], for which the 50% inhibitory concentration (IC50) was 1.3 µM in experiment [1] (setting [4]) and 6 µM in experiment [2].

Consider `COC[C@H]1CN[C@H](C)CN1CC(=O)N1CC(C)(C)c2cnc(-c3cnn(C)c3)cc21` [Example 124, 1-[3,3-Dimethyl-6-(1-methyl-1H-pyrazol-4-yl)-1H,2H,3H-pyrrolo[3,2-c]pyridin-1-yl]-2-[(2R,5R)-2-(methoxymethyl)-5-methylpiperazin-1-yl]ethan-1-one dihydrochloride], for which the IC50 in experiment [1] (setting [3]) was 0.55 µM; in experiment [2] it was 4 µM.

Consider `C[C@@H]1CN(CC(=O)N2CC(C)(C)c3c(Cl)cc(Cl)cc32)CCN1` [Example 46, 1-(4,6-Dichloro-3,3-dimethyl-2,3-dihydro-indol-1-yl)-2-((R)-3-methyl-piperazin-1-yl)-ethanone hydrochloride salt], for which the concentration for half-maximal inhibition (IC50) was determined as 4.8 µM in experiment [1] (setting [4]) and 9 µM in experiment [2].

Consider `C[C@@H]1CN(CC(=O)N2CCc3ccc(OC(F)(F)F)cc32)CCN1` [Example 28, 2-((R)-3-Methyl-piperazin-1-yl)-1-(6-trifluoromethoxy-2,3-dihydro-indol-1-yl)-ethanone hydrochloride salt], for which the IC50 in experiment [1] (setting [7]) is 42 µM; in experiment [2], 17 µM.

Consider `C[C@@H]1CN(CC(=O)N2CCc3ccc(C(=O)N4CCCC4)cc32)CCN1` [Example 18, 2-((R)-3-Methyl-piperazin-1-yl)-1-[6-(pyrrolidine-1-carbonyl)-2,3-dihydro-indol-1-yl]-ethanone], for which the inhibition at 49 µM in experiment [1] (setting [5]) amounted to 43%; in experiment [2] (setting [6]) it was 47%.

On to `C[C@@H]1CN(CC(=O)N2CCc3cc(Br)c(S(=O)(=O)N(C)C)cc32)CCN1` [Example 26, 5-Bromo-1-[2-((R)-3-methyl-piperazin-1-yl)-acetyl]-2,3-dihydro-1H-indole-6-sulfonic acid dimethylamide hydrochloride salt], for which the IC50 in experiment [1] (setting [7]) came to 27 µM; in experiment [2], 2.4 µM.

Regarding `CCS(=O)(=O)c1cc2c(cc1F)C(C)(C)CN2C(=O)CN1CCN[C@H](C)C1` [Example 51, 1-(6-Ethanesulfonyl-5-fluoro-3,3-dimethyl-2,3-dihydro-indol-1-yl)-2-((R)-3-methyl-piperazin-1-yl)-ethanone dihydrochloride salt], the IC50 in experiment [1] (setting [3]) is 3.2 µM; in experiment [2], 1.1 µM.

In the case of `C[C@@H]1CN(CC(=O)N2CCc3ccc(S(=O)(=O)c4ccccc4)cc32)CCN1` [Example 33, 1-(6-Benzene-sulfonyl-2,3-dihydro-indol-1-yl)-2-((R)-3-methyl-piperazin-1-yl)-ethanone hydrochloride salt], the figures for the IC50 in experiment [1], in experiment [1] (setting [7]) and in experiment [2] were less than 10 µM, 3.8 µM and 1.2 µM, respectively.

As to `COC[C@H]1CN[C@H](C)CN1CC(=O)N1CC(C)(COC)c2ccc(Br)cc21` (stereo partly drawn) [Example 127, 1-[6-Bromo-3-(methoxymethyl)-3-methyl-2,3-dihydro-1H-indol-1-yl]-2-[(2R,5R)-2-(methoxymethyl)-5-methylpiperazin-1-yl]ethan-1-one hydrochloride], the IC50 was 0.35 µM in experiment [1] (setting [4]) and 1.2 µM in experiment [2].

As to `COc1ccc2c(c1)N(C(=O)CN1CCN[C@H](C)C1)CC2` [Example 5, 1-(6-Methoxy-2,3-dihydro-indol-1-yl)-2-((R)-3-methyl-piperazin-1-yl)-ethanone], the IC50 in experiment [1] (setting [7]) is 78 µM. Besides, the inhibition at 160 µM in experiment [2] (1 h, @ 160 μM, read-out: IC50 or PI Xiap: PI) stood at 49%.

Consider `CNS(=O)(=O)c1ccc2c(c1)N(C(=O)CN1CCN[C@H](C)C1)CC2` [Example 27, 1-[2-((R)-3-Methyl-piperazin-1-yl)-acetyl]-2,3-dihydro-1H-indole-6-sulfonic acid methylamide], for which the half-maximal inhibitory concentration (IC50) came to 59 µM in experiment [1] (setting [7]) and 2.5 µM in experiment [2].

With `COC[C@H]1CN[C@H](C)CN1CC(=O)N1CC(C)(C)c2ccc(CN3CCCC3=O)cc21` [Example 125, 1-[(1-{2-[(2R,5R)-2-(Methoxymethyl)-5-methylpiperazin-1-yl]acetyl}-3,3-dimethyl-2,3-dihydro-1H-indol-6-yl)methyl]pyrrolidin-2-one hydrochloride], the IC50 in experiment [1] (setting [4]) worked out at 0.73 µM; in experiment [2], 29 µM.

As to `COC[C@H]1CN[C@H](C)CN1CC(=O)N1CC(C)(c2ccccn2)c2ccc(C#N)cc21` (mixture of isomers) [Example 156, 1-{2-[(2R,5R)-2-(Methoxymethyl)-5-methylpiperazin-1-yl]acetyl}-3-methyl-3-(pyridin-2-yl)-2,3-dihydro-1H-indole-6-carbonitrile hydrochloride [mixture of diastereoisomers]], the IC50 in experiment [1] (setting [4]) is 1.3 µM; in experiment [2], 1.5 µM.

In the case of `CC(C)S(=O)(=O)c1cc2c(cc1F)C(C)(C)CN2C(=O)CN1CCN[C@H](C)C1` [Example 52, 1-[5-Fluoro-3,3-dimethyl-6-(propane-2-sulfonyl)-2,3-dihydro-indol-1-yl]-2-((R)-3-methyl-piperazin-1-yl)-ethanone diydrochloride salt], the IC50 in experiment [1] (setting [4]) was 2.5 µM; in experiment [2], 0.95 µM.
